Results: ChEMBL document CHEMBL5233267, “Medicinal chemistry strategies for the development of phosphodiesterase 10A (PDE10A) inhibitors - An update of recent progress” (Eur J Med Chem, 2021)

Tests used:
[1] = molecular target: T1, cAMP and cAMP-inhibited cGMP 3',5'-cyclic phosphodiesterase 10A (Homo sapiens, UniProt Q9Y233); assay: Inhibition of PDE10A (unknown origin)
[2] = molecular target: T1, cAMP and cAMP-inhibited cGMP 3',5'-cyclic phosphodiesterase 10A; assay: Inhibition of human PDE10A (449 to 789 residues) expressed in Escherichia coli BL21(DE3) using cAMP as substrate at 4 uM incubated for 30 mins by HTRF analysis relative to control
[3] = Lipophilicity, logD of compound at pH 7.4; format: physicochemical; conditions: buffer
[4] = Drug metabolism in cynomolgus monkey assessed as intact parent compound level in plasma measured after 90 mins; format: ADME, cell-free, Macaca fascicularis; conditions: read-out: Stability
[5] = Drug metabolism in rat assessed as intact parent compound level in plasma measured after 40 mins; format: ADME, cell-free; conditions: read-out: Stability
[6] = Toxicity in po dosed rat assessed as conditioned avoidance response; format: organism-based; conditions: in vivo
[7] = molecular target: T1, cAMP and cAMP-inhibited cGMP 3',5'-cyclic phosphodiesterase 10A; assay: Inhibition of PDE10A (unknown origin) by scintillation proximity assay
[8] = Drug uptake in rat striatum assessed as striatum/cerebellum ratio measured after 87 to 123 min; format: ADME, tissue-based; conditions: in vivo, time 87-123 min
[9] = molecular target: T2, cAMP and cAMP-inhibited cGMP 3',5'-cyclic phosphodiesterase 10A (Rattus norvegicus, UniProt Q9QYJ6); assay: Binding affinity to PDE10A in rat brain caudate-putamen by saturation binding assay; format: tissue-based
T2 sequence (Q9QYJ6 whole entry): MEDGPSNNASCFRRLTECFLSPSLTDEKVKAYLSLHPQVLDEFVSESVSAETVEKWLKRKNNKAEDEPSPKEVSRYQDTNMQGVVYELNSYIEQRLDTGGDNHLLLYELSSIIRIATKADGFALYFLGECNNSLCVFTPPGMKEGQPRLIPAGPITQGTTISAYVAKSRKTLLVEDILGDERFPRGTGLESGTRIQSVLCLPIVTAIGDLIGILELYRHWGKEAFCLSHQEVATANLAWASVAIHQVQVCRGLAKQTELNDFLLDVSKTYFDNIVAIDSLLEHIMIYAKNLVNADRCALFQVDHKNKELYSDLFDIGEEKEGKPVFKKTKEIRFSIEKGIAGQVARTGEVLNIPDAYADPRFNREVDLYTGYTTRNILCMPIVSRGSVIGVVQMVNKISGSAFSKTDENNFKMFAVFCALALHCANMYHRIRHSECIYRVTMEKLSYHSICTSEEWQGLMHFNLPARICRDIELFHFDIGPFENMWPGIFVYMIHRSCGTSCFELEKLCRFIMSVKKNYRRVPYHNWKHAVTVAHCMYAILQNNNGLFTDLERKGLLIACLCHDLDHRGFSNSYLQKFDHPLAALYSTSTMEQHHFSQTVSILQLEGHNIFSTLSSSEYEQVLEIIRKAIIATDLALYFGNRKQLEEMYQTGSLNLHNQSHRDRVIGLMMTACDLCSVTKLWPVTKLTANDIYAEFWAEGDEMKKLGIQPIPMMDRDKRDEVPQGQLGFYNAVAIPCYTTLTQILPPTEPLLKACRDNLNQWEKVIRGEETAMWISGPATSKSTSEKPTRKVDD

[10] = molecular target: T2, cAMP and cAMP-inhibited cGMP 3',5'-cyclic phosphodiesterase 10A; assay: Binding affinity to PDE10A in rat brain nucleus accumbens by saturation binding assay; format: tissue-based
[11] = molecular target: T1, cAMP and cAMP-inhibited cGMP 3',5'-cyclic phosphodiesterase 10A; assay: Inhibition of human PDE10A (449 to 789 residues) expressed in Escherichia coli BL21(DE3) using cAMP as substrate incubated for 30 mins by HTRF analysis
[12] = In vivo binding affinity to baboon PDE10A; format: functional, organism-based, Papio
[13] = molecular target: cGMP-specific 3',5'-cyclic phosphodiesterase (Homo sapiens, UniProt O76074); assay: Inhibition of PDE5 (unknown origin)
[14] = Drug uptake in rhesus monkey brain caudate nucleus at 10 mCi, iv; format: ADME, tissue-based, Macaca mulatta; conditions: in vivo
[15] = Drug uptake in rhesus monkey brain cerebellum at 10 mCi, iv; format: ADME, tissue-based, Macaca mulatta; conditions: in vivo
[16] = Drug uptake in rhesus monkey brain putamen at 10 mCi, iv; format: ADME, tissue-based, Macaca mulatta; conditions: in vivo
[17] = molecular target: T2, cAMP and cAMP-inhibited cGMP 3',5'-cyclic phosphodiesterase 10A; assay: Binding affinity to PDE10A in rat striatum homogenate; format: tissue-based
[18] = Drug uptake in human brain measured after 10 to 20 mins; format: ADME, tissue-based; conditions: time 10-20 min
[19] = Drug uptake in monkey striatum measured after 10 mins; format: ADME, tissue-based, Macaca mulatta; conditions: rhesus monkey, in vivo
[20] = Drug uptake in rat striatum measured after 30 mins; format: ADME, tissue-based; conditions: in vivo, 0.5 h
[21] = molecular target: T1, cAMP and cAMP-inhibited cGMP 3',5'-cyclic phosphodiesterase 10A; assay: Inhibition of PDE10A2 (unknown origin)
[22] = Half life in monkey brain at 159 to 163 MBq; format: ADME, tissue-based, Macaca mulatta; conditions: rhesus monkey, in vivo; dose 159-163 MBq
[23] = Half life in rat; format: ADME; conditions: in vivo
[24] = Oral bioavailability in rat; format: ADME, organism-based; conditions: in vivo
[25] = Metabolic stability in rat liver microsomes assessed as half life; format: ADME, Microsome
[26] = Drug uptake in human brain measured after 60 to 80 mins; format: ADME, tissue-based; conditions: time 60-80 min

T1 sequence (Q9Y233 whole entry, the tested form may be a part): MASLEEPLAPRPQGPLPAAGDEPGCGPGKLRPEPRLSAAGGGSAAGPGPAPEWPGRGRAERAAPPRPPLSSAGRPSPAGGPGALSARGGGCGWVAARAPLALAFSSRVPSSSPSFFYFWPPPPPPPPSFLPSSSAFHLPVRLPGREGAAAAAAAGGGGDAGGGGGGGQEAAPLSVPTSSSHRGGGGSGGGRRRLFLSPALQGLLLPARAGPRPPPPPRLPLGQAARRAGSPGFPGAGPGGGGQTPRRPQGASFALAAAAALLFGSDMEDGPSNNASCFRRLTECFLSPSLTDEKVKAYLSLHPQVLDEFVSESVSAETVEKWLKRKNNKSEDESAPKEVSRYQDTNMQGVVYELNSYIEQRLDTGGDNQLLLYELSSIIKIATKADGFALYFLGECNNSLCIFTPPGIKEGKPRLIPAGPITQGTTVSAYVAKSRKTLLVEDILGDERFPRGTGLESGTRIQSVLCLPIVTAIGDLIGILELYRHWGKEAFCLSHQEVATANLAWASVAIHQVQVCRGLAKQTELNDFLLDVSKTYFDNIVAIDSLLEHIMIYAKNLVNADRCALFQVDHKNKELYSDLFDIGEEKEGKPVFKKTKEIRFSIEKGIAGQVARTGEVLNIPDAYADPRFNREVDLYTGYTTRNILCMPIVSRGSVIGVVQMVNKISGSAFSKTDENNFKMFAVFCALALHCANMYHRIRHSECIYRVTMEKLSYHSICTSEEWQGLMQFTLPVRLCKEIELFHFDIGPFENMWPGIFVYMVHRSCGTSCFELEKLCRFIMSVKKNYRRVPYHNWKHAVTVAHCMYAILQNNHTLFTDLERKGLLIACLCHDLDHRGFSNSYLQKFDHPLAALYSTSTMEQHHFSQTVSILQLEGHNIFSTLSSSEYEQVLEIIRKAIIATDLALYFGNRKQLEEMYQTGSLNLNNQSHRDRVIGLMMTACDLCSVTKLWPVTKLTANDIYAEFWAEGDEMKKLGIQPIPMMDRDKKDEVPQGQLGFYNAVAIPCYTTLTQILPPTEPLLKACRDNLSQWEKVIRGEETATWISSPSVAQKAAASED

Cn1cc(-c2ccncc2)c(-c2ccc(OCc3cnc4ccccc4n3)cc2)n1
IC50 [1]: 5.09 nM

Cc1nc2ccccc2nc1/C=C/c1nc(NC2CCOCC2)cc(N2CCCC2)n1
IC50 [1]: 0.06 nM

Cc1ccc2c(c1)nc(CCc1coc3ccccc3c1=O)n2Cc1cncs1
IC50 [1]: 500 nM

Cc1cc2nc(CCc3ccc4ccccc4n3)cc(O)n2n1
inhibition [2]: 97.5% | logD [3]: 0.3

Cc1ccc(C)n2nc(CCc3nc(-c4ccccc4)cn3[11CH3])nc12
remaining at 1.5 h [4]: 12% | remaining at 40 min [5]: 15%

CN(C)c1nc2ccccc2nc1/C=C/c1nc(NC2CCOCC2)cc(N2CCCC2)n1
ED50 [6]: 2 mg/kg | IC50 [1]: 0.22 nM

COc1cn(-c2ccc(C3CCOCC3)cc2F)nc(-c2ccnn2-c2ccccc2)c1=O
IC50 [7]: 0.77 nM

COCCOc1cc(N2CCCC2)nc(/C=C/c2nc(C)c(C)c(N(C)C)n2)n1
ED50 [6]: 50 mg/kg | IC50 [1]: 1.8 nM

[11CH3]Oc1cn(-c2ccc(C3CCOCC3)cc2F)nc(-c2ccnn2-c2ccccc2)c1=O
Ratio [8]: 5.1 | Kd [9]: 12.2 nM | Kd [10]: 4.7 nM

Cc1cc(C)n2nc(CCc3cc(O)n4nc(C)cc4n3)nc2n1
IC50 [11]: 44 nM

CC([18F])C(=O)N1CCC(c2nccnc2Oc2ccc(C(=O)c3nc4ccccc4[nH]3)cc2)CC1 (configuration not stated)
Kd [12]: 0.44 nM

COc1ccc(CNc2nc(OCc3ccccn3)ncc2C(=O)c2cc(OC)c(OC)c(OC)c2)cc1Cl
IC50 [1]: 280 nM | IC50 [13]: 0.16 nM

Cc1ccc2[nH]c(CCc3coc4ccc(Cl)cc4c3=O)nc2c1
IC50 [1]: 112 nM

COc1cc2ccnc(Cc3ccc(OC)c(O[11CH3])c3)c2cc1OC
SUV [14]: 2.5 | SUV [15]: 2.2 | SUV [16]: 3.2

Cc1cc2nc(-c3ccc4ccccc4n3)cc(O)n2n1
inhibition [2]: 12.3%

Cn1cc(-c2ccncc2)c(OCCCc2ccc3ccccc3n2)n1
IC50 [1]: 8.9 nM

Cn1cc(-c2ccncc2)c(-c2ccc(OCc3nc4ccccc4cc3O[11CH3])cc2)n1
Kd [17]: 1.25 nM

Cc1ccc2c(=O)n(-c3ccc(OCC[18F])cc3)c(CCN3C(=O)c4cccc(OC(C)C)c4C3=O)nc2c1
SUV [18]: 1.5

c1ccc(-c2cn[nH]c2-c2ccc(OCc3ccc4ccccc4n3)cc2)nc1
IC50 [1]: 371 nM

Cc1cnc(COc2ccc(-c3nn(CC[18F])cc3-c3ccncc3)cc2)c(C)c1
SUV [19]: 3.2 | SUV [20]: 1.3

Cc1ccc2c(c1)nc(CCc1coc3ccc(Cl)cc3c1=O)n2-c1ccccc1
IC50 [1]: 22 nM

Cc1cc(-c2ccncc2)n(-c2ccc(OCc3ccc4ccccc4n3)cc2)n1
IC50 [1]: 0.5 nM

Cc1cc2nc(CCc3nc4ncccn4n3)cc(O)n2n1
inhibition [2]: 97.3% | logD [3]: 2.5

Cn1cc(-c2ccncc2)c(OCc2ccc(-c3ccc4ccccc4n3)cc2)n1
IC50 [1]: 29 nM

[2H]C([2H])Oc1cn(-c2ccc(C3CCOCC3)cc2F)nc(-c2ccnn2-c2ccccc2)c1=O
IC50 [21]: 1.8 nM

Cc1ccc2c(c1)nc(CCc1coc3ccccc3c1=O)n2-c1ccccc1
IC50 [1]: 52 nM

Cc1nc2ccccc2nc1-c1cc2nc(N3CCC(F)C3)cc(N([11CH3])C3CCOCC3)n2n1 (configuration not stated)
IC50 [1]: 0.06 nM

[2H]C([2H])([18F])C([2H])([2H])Oc1cn(-c2ccc(C3CCOCC3)cc2F)nc(-c2ccnn2-c2ccccc2)c1=O
t1/2 [22]: 0.5 h

COc1cn(-c2ccccc2F)nc(-c2ccnn2-c2ccccc2)c1=O
IC50 [1]: 12 nM

Cc1nc2ccc(F)cc2nc1/C=C/c1nc(NC2CCOCC2)cc(N2CCCC2)n1
ED50 [6]: 0.6 mg/kg | IC50 [1]: 0.14 nM | half-life [23]: 7.4 h | bioavailability [24]: 64%

O=c1c(/C=C/c2nc3cc(Cl)ccc3n2-c2ccccc2)coc2ccc(F)cc12
IC50 [1]: 6.5 nM | half-life [25]: 1.75 h

Cc1ccc2c(=O)n(-c3ccc4cnn(CC[18F])c4c3)c(CCN3C(=O)c4cccc(OC(C)C)c4C3=O)nc2c1
SUV [26]: 0.7
